Results: BindingDB's records for doi:10.1111/cbdd.12801 (2016)

Assays:
Conditions in all cases: pH 7.4; 25 °C
Adenosine receptor A1 = target: T1, Adenosine receptor A1 (Homo sapiens, UniProt P30542); test: A1 Adenosine Receptor Binding Assay
T1 sequence (P30542 whole entry): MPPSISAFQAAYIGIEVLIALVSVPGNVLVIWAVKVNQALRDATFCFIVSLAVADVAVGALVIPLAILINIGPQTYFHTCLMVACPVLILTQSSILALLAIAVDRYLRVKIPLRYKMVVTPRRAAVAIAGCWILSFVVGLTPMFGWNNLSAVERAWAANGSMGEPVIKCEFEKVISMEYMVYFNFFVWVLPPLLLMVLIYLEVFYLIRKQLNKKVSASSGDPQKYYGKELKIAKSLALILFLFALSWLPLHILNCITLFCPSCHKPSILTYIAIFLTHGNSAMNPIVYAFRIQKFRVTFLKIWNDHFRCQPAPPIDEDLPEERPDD
Description: Aliquots of cell membranes (30 ug proteins) were incubated at 25 °C for 180 min in 500 uL of binding buffer (50 mM Tris-HCl, 2 mM MgCl2, 2 units/mL ADA, pH 7.4) containing [3H]DPCPX (3 nM) and six different concentrations of the tested compounds. Non-specific binding was determined in the presence of 50 µM R-PIA. The dissociation constant (Kd) of [3H]DPCPX in human A1 AR CHO cell membranes was 3 nM.

Adenosine receptor A3 = target: T2, Adenosine receptor A3 (Homo sapiens, UniProt P0DMS8); test: A3 Adenosine Receptor Binding Assay
T2 sequence (P0DMS8 whole entry): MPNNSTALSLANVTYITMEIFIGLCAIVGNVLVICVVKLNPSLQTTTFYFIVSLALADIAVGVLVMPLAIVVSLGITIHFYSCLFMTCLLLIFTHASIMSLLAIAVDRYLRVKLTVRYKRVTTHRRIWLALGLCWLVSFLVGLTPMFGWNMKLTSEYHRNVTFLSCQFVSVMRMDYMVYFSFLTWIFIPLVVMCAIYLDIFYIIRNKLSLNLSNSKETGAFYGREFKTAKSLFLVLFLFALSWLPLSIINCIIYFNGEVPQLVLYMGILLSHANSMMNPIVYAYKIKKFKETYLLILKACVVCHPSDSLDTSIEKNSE
Description: (§1) Aliquots of cell membranes (90 ug) were incubated at 25 °C for 180 min in 500 uL of binding buffer (50 mM Tris-HCl, 5 mM MgCl2, 1 mM EDTA, 2 units/mL ADA, pH 7.4) in the presence of 30 nm [3H]NECA and six different concentrations of the tested compounds. Non-specific binding was determined in the presence of 100 uM R-PIA.

Adenosine receptor A2a = Adenosine receptor A2a (Homo sapiens, UniProt P29274); test: A2A Adenosine Receptor Binding Assay
Sequence of Adenosine receptor A2a (P29274 whole entry): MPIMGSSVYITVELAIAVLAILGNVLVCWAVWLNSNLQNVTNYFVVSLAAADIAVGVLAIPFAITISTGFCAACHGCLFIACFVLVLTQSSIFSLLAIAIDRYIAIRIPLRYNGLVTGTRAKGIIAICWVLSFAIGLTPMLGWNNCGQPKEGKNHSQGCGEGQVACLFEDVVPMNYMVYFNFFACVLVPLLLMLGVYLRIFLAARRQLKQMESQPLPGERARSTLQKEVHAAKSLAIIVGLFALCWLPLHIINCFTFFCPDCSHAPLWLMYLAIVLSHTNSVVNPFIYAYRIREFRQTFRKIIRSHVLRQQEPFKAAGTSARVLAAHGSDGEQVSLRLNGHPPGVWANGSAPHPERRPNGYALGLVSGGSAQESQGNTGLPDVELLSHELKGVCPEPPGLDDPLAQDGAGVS
Description: as §1, with “(30” for “(90”, “90” for “180”, “2 mm” for “5 mM”, “MgCl2,” for “MgCl2, 1 mM EDTA,”, “nM of” for “nm”

| EC50 (Adenosine receptor A1) [µM] | Ki (Adenosine receptor A1) [µM] | Ki (Adenosine receptor A3) [µM] | Ki (Adenosine receptor A2a) [µM] | SMILES |
| --- | --- | --- | --- | --- |
| 0.49 | 1.24 | > 10 | > 10 | CCCOc1cc(N)nc(SCc2ccccc2)n1 [4-amino-6-alkyloxy-2-benzylthiopyrimidines (4)] |
| 0.87 | 1.94 | > 10 | > 10 | CC(C)COc1cc(N)nc(SCc2ccccc2)n1 [4-amino-6-alkyloxy-2-benzylthiopyrimidines (5)] |
|  | 1.2 | > 10 | > 10 | Nc1cc(OCc2ccccc2)nc(SCc2ccccc2)n1 [4-amino-6-alkyloxy-2-benzylthiopyrimidines (6)] |
